Measured values published in publication PMC9389588, “1,6-epi-Cyclophellitol Cyclosulfamidate Is a Bona Fide Lysosomal α-Glucosidase Stabilizer for the Treatment of Pompe Disease” (Journal of the American Chemical Society, 2022).
“And” between values parts separate entries of the source, which are not always exact repeats. Equal entries are not always repeated.

What was measured:
[1] = molecular target: T1, β-glucosidase GBA1 (Cerezyme) (Homo sapiens, UniProt P04062, R534H); assay: in vitro apparent IC50, GBA1 (Cerezyme), 4-MU-β-D-glucopyranoside; format: biochemical; conditions: pH 5.2, mean ± SD, read-out: in vitro GBA IC50
T1 construct: purchased
T1 sequence (P04062 40-536 R534H): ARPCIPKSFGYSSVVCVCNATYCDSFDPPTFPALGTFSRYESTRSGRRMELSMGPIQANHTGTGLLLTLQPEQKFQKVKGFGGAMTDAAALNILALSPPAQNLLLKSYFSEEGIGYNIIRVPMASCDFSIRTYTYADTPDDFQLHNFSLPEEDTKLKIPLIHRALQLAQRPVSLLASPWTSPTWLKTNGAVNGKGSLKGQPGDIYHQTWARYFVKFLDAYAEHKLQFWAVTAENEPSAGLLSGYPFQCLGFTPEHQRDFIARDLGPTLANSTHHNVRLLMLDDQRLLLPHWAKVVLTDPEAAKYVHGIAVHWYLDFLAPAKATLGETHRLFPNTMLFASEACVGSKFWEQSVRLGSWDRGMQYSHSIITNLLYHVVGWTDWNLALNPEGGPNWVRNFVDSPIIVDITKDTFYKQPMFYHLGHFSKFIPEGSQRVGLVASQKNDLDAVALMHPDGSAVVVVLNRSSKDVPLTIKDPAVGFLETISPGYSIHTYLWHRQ

β-glucosidase GBA2 = molecular target: T2, β-glucosidase GBA2 (Homo sapiens, UniProt Q9HCG7); assay: in vitro apparent IC50, GBA2-overexpressing HEK293T lysate; format: biochemical; conditions: for IC50: apparent IC50, pH 5.8, mean ± SD
T2 construct: expressed in transfected cells; host or cells: HEK293T
T2 sequence (Q9HCG7 1-927): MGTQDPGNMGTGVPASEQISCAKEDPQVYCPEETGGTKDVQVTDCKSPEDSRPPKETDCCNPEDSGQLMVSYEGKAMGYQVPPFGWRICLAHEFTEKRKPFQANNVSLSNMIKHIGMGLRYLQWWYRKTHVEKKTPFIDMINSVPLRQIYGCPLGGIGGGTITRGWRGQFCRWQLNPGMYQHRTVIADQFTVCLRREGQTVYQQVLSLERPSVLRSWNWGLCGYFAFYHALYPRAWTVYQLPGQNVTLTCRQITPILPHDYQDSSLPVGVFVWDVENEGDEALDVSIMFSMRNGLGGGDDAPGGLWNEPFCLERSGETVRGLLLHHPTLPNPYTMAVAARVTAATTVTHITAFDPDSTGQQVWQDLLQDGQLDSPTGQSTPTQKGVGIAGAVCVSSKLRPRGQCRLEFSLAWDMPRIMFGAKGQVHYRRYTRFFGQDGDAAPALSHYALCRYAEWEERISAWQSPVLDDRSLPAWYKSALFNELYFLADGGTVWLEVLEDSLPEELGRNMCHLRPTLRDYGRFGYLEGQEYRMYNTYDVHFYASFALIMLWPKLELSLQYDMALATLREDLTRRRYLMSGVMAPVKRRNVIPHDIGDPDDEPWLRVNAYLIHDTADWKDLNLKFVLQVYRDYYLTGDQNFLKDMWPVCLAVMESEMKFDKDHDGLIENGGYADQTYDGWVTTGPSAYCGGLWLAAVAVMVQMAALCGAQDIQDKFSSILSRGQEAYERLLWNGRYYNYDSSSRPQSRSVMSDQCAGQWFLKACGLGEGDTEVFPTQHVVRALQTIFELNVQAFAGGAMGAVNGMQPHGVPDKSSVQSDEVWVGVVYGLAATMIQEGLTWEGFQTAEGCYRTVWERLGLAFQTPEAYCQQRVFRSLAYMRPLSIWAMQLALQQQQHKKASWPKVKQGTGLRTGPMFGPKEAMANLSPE

[2] = molecular target: T3, ER α-glucosidase II (GANAB) (Homo sapiens, UniProt Q14697); assay: in vitro apparent IC50, GANAB in fibroblast lysates, 4-MU-α-D-glucopyranoside; format: biochemical; conditions: for IC50: apparent IC50, Pompe disease fibroblast lysates, pH 7.0, mean ± SD
T3 construct: GANAB (from Pompe Disease Fibroblast Lysates); endogenous in cells; host or cells: human fibroblasts (lysate)
T3 sequence (Q14697 29-944): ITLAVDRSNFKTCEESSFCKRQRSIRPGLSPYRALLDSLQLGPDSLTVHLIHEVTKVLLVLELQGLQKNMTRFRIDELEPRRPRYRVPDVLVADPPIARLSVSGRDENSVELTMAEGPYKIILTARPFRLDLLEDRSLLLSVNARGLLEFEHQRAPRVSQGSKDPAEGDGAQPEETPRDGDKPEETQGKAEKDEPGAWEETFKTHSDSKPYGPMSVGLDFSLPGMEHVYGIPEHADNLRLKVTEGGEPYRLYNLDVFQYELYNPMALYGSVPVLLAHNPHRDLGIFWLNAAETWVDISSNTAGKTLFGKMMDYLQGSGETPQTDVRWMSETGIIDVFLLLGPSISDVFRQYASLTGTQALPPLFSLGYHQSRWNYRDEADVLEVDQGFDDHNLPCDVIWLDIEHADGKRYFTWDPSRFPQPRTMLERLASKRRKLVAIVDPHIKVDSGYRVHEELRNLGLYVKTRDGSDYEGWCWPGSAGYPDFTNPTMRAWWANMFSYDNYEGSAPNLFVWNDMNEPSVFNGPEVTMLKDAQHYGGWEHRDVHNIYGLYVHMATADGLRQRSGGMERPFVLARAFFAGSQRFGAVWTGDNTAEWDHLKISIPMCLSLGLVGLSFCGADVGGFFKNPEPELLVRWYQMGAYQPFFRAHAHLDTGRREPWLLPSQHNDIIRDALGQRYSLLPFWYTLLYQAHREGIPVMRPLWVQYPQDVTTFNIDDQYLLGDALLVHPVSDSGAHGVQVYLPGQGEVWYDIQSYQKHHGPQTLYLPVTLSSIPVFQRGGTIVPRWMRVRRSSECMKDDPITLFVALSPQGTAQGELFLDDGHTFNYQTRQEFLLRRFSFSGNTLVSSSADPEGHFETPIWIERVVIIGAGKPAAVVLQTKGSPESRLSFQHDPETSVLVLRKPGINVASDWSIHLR
T3 sequence (P14314 15-528 partner): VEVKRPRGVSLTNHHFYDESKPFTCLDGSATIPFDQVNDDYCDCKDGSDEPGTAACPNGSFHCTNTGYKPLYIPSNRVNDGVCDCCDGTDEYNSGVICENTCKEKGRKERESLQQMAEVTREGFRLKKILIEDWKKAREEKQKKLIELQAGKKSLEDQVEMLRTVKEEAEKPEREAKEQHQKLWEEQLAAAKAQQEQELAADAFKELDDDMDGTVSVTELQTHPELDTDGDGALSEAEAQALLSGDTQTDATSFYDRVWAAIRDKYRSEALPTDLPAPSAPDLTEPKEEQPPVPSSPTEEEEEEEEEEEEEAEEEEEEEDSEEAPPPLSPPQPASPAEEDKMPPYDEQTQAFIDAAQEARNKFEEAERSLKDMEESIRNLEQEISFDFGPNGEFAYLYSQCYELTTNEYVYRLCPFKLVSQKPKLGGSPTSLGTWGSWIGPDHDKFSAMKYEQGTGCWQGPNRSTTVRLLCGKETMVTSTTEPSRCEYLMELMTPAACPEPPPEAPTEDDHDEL

[3] = molecular target: α-glucosidase GAA (Myozyme) (Homo sapiens, UniProt P10253); assay: in vitro apparent IC50, GAA (Myozyme), 4-MU-α-D-glucopyranoside; format: biochemical; set-up: purchased Sanofi Genzyme; conditions: Myozyme 47 nM, pH 4.0, 30 min preincubation, mean ± SD
[4] = molecular target: T4, glucosylceramide synthase (GCS) (Mus musculus, UniProt O88693); assay: in situ cell inhibition of GCS in RAW 264.7 cells, glucosylation of C6-NBD-ceramide; format: cell-based; conditions: mean ± SD
T4 construct: endogenous in cells; host or cells: RAW 264.7
T4 sequence (O88693 1-394): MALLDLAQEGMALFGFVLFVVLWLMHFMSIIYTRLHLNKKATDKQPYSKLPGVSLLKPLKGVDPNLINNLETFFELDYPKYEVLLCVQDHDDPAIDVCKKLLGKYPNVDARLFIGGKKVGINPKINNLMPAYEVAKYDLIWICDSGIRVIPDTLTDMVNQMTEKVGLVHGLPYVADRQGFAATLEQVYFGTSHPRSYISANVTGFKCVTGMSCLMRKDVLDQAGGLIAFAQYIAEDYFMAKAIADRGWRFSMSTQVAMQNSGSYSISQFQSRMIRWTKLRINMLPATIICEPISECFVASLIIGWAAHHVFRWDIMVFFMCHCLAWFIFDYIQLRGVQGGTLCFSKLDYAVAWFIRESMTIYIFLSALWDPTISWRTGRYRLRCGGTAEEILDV

Row | IC50 [1] | inhibition at 500 µM (β-glucosidase GBA2; at 500 μM) | IC50 [2] | IC50 [3] | IC50 (β-glucosidase GBA2) | activity toward GANAB, in words [2] | IC50 [4] | Compound
1 | > 500 µM | 62% | 0.026 µM | 0.048 µM |  |  |  | O=S1(=O)O[C@@H]2[C@H](O)[C@@H](O)[C@H](O)[C@@H](CO)[C@@H]2O1 [compound 3, 1,6-epi-cyclophellitol cyclosulfate, reference compound]
2 | > 500 µM |  | > 500 µM | 485 ± 146 µM | 393 ± 93.7 µM | inactive |  | CN1[C@@H]2[C@H](O)[C@@H](O)[C@H](O)[C@@H](CO)[C@@H]2OS1(=O)=O [compound 5]
3 | 93 µM and 93.4 µM |  | 132 ± 11.8 µM | > 1000 µM | 652 ± 87.3 µM |  | > 50 µM | CN1[C@H]2[C@H](CO)[C@@H](O)[C@H](O)[C@@H](O)[C@H]2OS1(=O)=O [compound 7]
4 | > 500 µM |  | > 500 µM | > 500 µM | > 500 µM |  | > 50 µM | O=S1(=O)N[C@@H]2[C@H](O)[C@@H](O)[C@H](O)[C@@H](CO)[C@@H]2N1 [compound 8]
